Reference: patent US4661630A, “Carboxylic acid amides and their derivatives” (Eisai Co., Ltd., priority 1982, dated 1987)

What was measured:
[1] = test system: maximal electroshock seizures in mice; assay: Anti-electroshock convulsion activity (maximal electroshock seizures, method of Goodman et al.); assay type: in vivo; conditions: 2 hours after oral administration, n = 8, 25 mA, 0.25 sec.
Description: The effects of the representative compounds of the present invention on maximal electroshock seizures in mice were determined by the method of Goodman et al. [Goodman L. S., Singh Grewal M., Brown W. C. and Swinyard E. A., J. Pharmacol, Exp. Ther., 108, 168-176 (1953)]. At 2 hours after oral administration of test compounds, current (25 mA, 0.25 sec.) was delivered to animals with an electroshock device (made by Unique Medical).

[2] = Acute toxicity (oral LD50); conditions: mouse, in vivo, mice
Text: (c) Acute toxicity of the compounds of the present invention was relatively low.

[3] = test system: metrazol-induced convulsive death; assay: Anti-metrazol activity (metrazol-induced convulsive death); assay type: in vivo; conditions: oral doses of 20 to 80 mg/kg, male STD-ddY mice
Text: (a) Anti-metrazol activity of the compounds of the present invention was examined in male STD-ddY mice.

[4] = test system: mortality induced by potassium cyanide; assay: Anti-hypoxic activity (mortality induced by potassium cyanide); assay type: in vivo; conditions: 10 to 20 mg/kg, p.o., male STD-ddY mice

| Compound | Inhibition (%) of tonic extension ([1]; 80 mg/kg p.o.) [%] | Inhibition (%) of tonic extension ([1]; 320 mg/kg p.o.) [%] | Inhibition (%) of tonic extension ([1]; 40 mg/kg p.o.) [%] | Inhibition (%) of tonic extension ([1]; 10 mg/kg p.o.) [%] | Inhibition (%) of tonic extension ([1]; 20 mg/kg p.o.) [%] | LD50 [2] [mg/kg] | antagonism against metrazol-induced convulsive death [3] | anti-hypoxic activity (antagonism against mortality induced by potassium cyanide) [4] |
| --- | --- | --- | --- | --- | --- | --- | --- | --- |
| O=C(Nc1cc(C(F)(F)F)cc(C(F)(F)F)c1)[C@@H]1[C@@H]2CC[C@@H](C2)[C@@H]1C(=O)O (relative stereo) [Compound E, cis-endo-3-[(3,5-bistrifluoromethyl-phenyl)-aminocarbonyl]-bicyclo-(2,2,1)-heptane-2-carboxylic acid] | 0 | 100 |  |  |  |  |  |  |
| CC1CC[C@H](C(=O)O)[C@H](C(=O)Nc2cc(C(F)(F)F)cc(C(F)(F)F)c2)C1 (relative stereo) [Compound F, cis-2-[(3,5-bistrifluoromethyl-phenyl)-aminocarbonyl]-4(5)-methyl-cyclohexane carboxylic acid] | 100 | 100 | 50 |  |  |  |  |  |
| O=C1C2CC=CCC2C(=O)N1c1cc(C(F)(F)F)cc(C(F)(F)F)c1 (stereo not drawn) [Compound H, N-(3,5-bistrifluoromethylphenyl)-4-cyclohexene-1,2-dicarboximide] | 50 | 87.5 |  |  |  |  |  |  |
| O=C(Nc1cc(C(F)(F)F)cc(C(F)(F)F)c1)[C@H]1CC=CC[C@H]1C(=O)O (relative stereo) [Compound C, cis-6-[(3,5-bistrifluoromethyl-phenyl)-aminocarbonyl]-3-cyclohexene carboxylic acid] | 100 | 100 | 100 | 12.5 | 100 | 1000 to 2000 | dose-dependent antagonism | potent anti-hypoxic activity |
| O=C(O)[C@@H]1CCCC[C@H]1C(=O)Nc1cc(C(F)(F)F)cc(C(F)(F)F)c1 (relative stereo) [Compound B, trans-2-[(3,5-bistrifluoromethyl)-phenyl-aminocarbonyl]-cyclohexane carboxylic acid] | 0 | 100 |  |  |  |  |  |  |
| O=C(O)C1=C(C(=O)Nc2cc(C(F)(F)F)cc(C(F)(F)F)c2)CCCC1 [Compound D, 2-[(3,5-bistrifluoromethyl-phenyl)-aminocarbonyl]-1-cyclohexenecarboxylic acid] | 0 | 100 |  |  |  |  |  |  |
| O=C1C2CCCCC2C(=O)N1c1cc(C(F)(F)F)cc(C(F)(F)F)c1 (stereo not drawn) [Compound G, N-(3,5-bistrifluoromethylphenyl)-cyclohexane-1,2-dicarboximide] | 100 | 100 | 25 |  |  |  |  |  |
| O=C(Nc1cc(C(F)(F)F)cc(C(F)(F)F)c1)[C@H]1CCCC[C@H]1C(=O)O (relative stereo) [Compound A, cis-2-[(3,5-bistrifluoromethyl)-phenyl-aminocarbonyl]-cyclohexane carboxylic acid] | 100 | 100 | 100 | 25 | 50 | 1000 to 2000 | dose-dependent antagonism | potent anti-hypoxic activity |
